The test system of the series is rodent lifetime carcinogenesis bioassay, tumor incidence TD50. Description: chronic cancer bioassays in animals – CPDB, compiled studies (AID 1745844).
Where [1] appears, read: rat, strain Fischer 344, females, in feed, site: any site (literature study), lesion: several types, types named in the paper, dosed 104 weeks, study length 104 weeks.

Values joined by “and” are separate entries in the source; they are usually repeats but may differ in a detail not shown here. Equal values may be shown once. Active and inactive are the calls of the source. No rule for the calls is given here.

By TD50 is commonly meant the dose at which the toxic effect under study appears in half of the subjects. On to `ClC(Cl)(Cl)C(Cl)(Cl)Cl`, for which the TD50 (mouse, strain B6C3F1, females, by gavage, site: any site (literature study), lesion: several types, types named in the paper, dosed 78 weeks, study length 90 weeks) was 1190 mg/kg/day; the TD50 (mouse, strain B6C3F1, females, by gavage, site: liver, lesion: hepatocellular adenoma + hepatocellular carcinoma + neoplastic nodule, dosed 78 weeks, study length 90 weeks) was 873 mg/kg/day; the TD50 (mouse, strain B6C3F1, females, by gavage, site: liver, lesion: hepatocellular carcinoma, dosed 78 weeks, study length 90 weeks) is 873 mg/kg/day and 319 mg/kg/day; the TD50 (mouse, strain B6C3F1, females, by gavage, site: lung, lesion: alveolar/bronchiolar adenoma + alveolar/bronchiolar carcinoma, dosed 78 weeks, study length 90 weeks) worked out at 6950 mg/kg/day; the TD50 (mouse, strain B6C3F1, males, by gavage, site: any site (literature study), lesion: several types, types named in the paper, dosed 78 weeks, study length 90 weeks) was found to be 675 mg/kg/day; the TD50 (mouse, strain B6C3F1, males, by gavage, site: liver, lesion: hepatocellular adenoma + hepatocellular carcinoma + neoplastic nodule, dosed 78 weeks, study length 90 weeks) is 585 mg/kg/day. For the same compound, the TD50 by setting is: (mouse, strain B6C3F1, males, by gavage, site: liver, lesion: hepatocellular carcinoma, dosed 78 weeks, study length 90 weeks) 585 mg/kg/day and 359 mg/kg/day; (mouse, strain B6C3F1, males, by gavage, site: lung, lesion: alveolar/bronchiolar adenoma + alveolar/bronchiolar carcinoma, dosed 78 weeks, study length 90 weeks) 23600 mg/kg/day; (rat, strain Fischer 344, females, by gavage, site: liver, lesion: hepatocellular adenoma + hepatocellular carcinoma + neoplastic nodule, dosed 103 weeks, study length 105 weeks) 276000 mg/kg/day; (rat, strain Fischer 344, males, by gavage, site: adrenal gland + adrenal medulla, lesion: pheochromocytoma, benign + pheochromocytoma benign, bilateral + pheochromocytoma, complex + pheochromocytoma, malignant, dosed 103 weeks, study length 105 weeks) 8.02 mg/kg/day; (rat, strain Fischer 344, males, by gavage, site: adrenal gland + adrenal medulla, lesion: pheochromocytoma, benign + pheochromocytoma benign, bilateral, dosed 103 weeks, study length 105 weeks) 9.05 mg/kg/day; (rat, strain Fischer 344, males, by gavage, site: any site (literature study), lesion: several types, types named in the paper, dosed 103 weeks, study length 105 weeks) 28 mg/kg/day. For the same compound, the TD50 (rat, strain Fischer 344, males, by gavage, site: kidney, lesion: adenoma + tubule adenoma + tubule carcinoma, dosed 103 weeks, study length 105 weeks) was 55.4 mg/kg/day; the TD50 (rat, strain Fischer 344, males, by gavage, site: kidney, lesion: tubule carcinoma, dosed 103 weeks, study length 105 weeks) amounted to 159 mg/kg/day; the TD50 (rat, strain Fischer 344, males, by gavage, site: liver, lesion: hepatocellular adenoma + hepatocellular carcinoma + neoplastic nodule, dosed 103 weeks, study length 105 weeks) was 1340 mg/kg/day. Also, the carcinogen call was “negative (inactive)” (rat, strain Fischer 344, females, by gavage, site: any site (literature study), lesion: several types, types named in the paper, dosed 103 weeks, study length 105 weeks); “negative (inactive)” (rat, strain Osborne-Mendel, females, by gavage, site: any site (literature study), lesion: several types, types named in the paper, dosed 78 weeks, study length 111 weeks); “negative (inactive)” (rat, strain Osborne-Mendel, males, by gavage, site: any site (literature study), lesion: several types, types named in the paper, dosed 78 weeks, study length 111 weeks).

On to `O=NN1CCCC[C@H]1c1cccnc1`, for which the TD50 is, setting by setting: (rat, strain Chester Beatty albino, females, in drinking water, site: esophagus, lesion: benign tumor, dosed 73 weeks, study length 73 weeks) 17.7 mg/kg/day; (rat, strain Chester Beatty albino, females, in drinking water, site: esophagus, lesion: several types, types named in the paper, dosed 73 weeks, study length 73 weeks) 12.9 mg/kg/day; (rat, strain Chester Beatty albino, females, in drinking water, site: esophagus, lesion: squamous-cell carcinoma, dosed 73 weeks, study length 73 weeks) 413 mg/kg/day; (rat, strain Chester Beatty albino, males, in drinking water, site: esophagus, lesion: benign tumor, dosed 73 weeks, study length 73 weeks) 28.1 mg/kg/day; (rat, strain Chester Beatty albino, males, in drinking water, site: esophagus, lesion: several types, types named in the paper, dosed 73 weeks, study length 73 weeks) 11 mg/kg/day; (rat, strain Chester Beatty albino, males, in drinking water, site: esophagus, lesion: squamous-cell carcinoma, dosed 73 weeks, study length 73 weeks) 86 mg/kg/day.

For the compound `CCNC(=S)NCC`, the carcinogen call was “negative (inactive)” (mouse, strain B6C3F1, females, in feed, site: any site (literature study), lesion: several types, types named in the paper, dosed 103 weeks, study length 104 weeks) and “negative (inactive)” (mouse, strain B6C3F1, males, in feed, site: any site (literature study), lesion: several types, types named in the paper, dosed 103 weeks, study length 104 weeks). The TD50 was 687 mg/kg/day (mouse, strain B6C3F1, females, in feed, site: liver, lesion: hepatocellular adenoma + hepatocellular carcinoma + neoplastic nodule, dosed 103 weeks, study length 104 weeks); 28.1 mg/kg/day (rat, strain F344/DuCrj, males, in feed, site: thyroid gland, lesion: follicular-cell carcinoma, dosed 52 weeks, study length 52 weeks); 21.5 mg/kg/day under setting [1]; 23.8 mg/kg/day (rat, strain Fischer 344, females, in feed, site: thyroid gland, lesion: follicular-cell adenoma + follicular-cell carcinoma, dosed 104 weeks, study length 104 weeks); 57.9 mg/kg/day (rat, strain Fischer 344, females, in feed, site: thyroid gland, lesion: follicular-cell carcinoma, dosed 104 weeks, study length 104 weeks); 12.9 mg/kg/day (rat, strain Fischer 344, males, in feed, site: any site (literature study), lesion: several types, types named in the paper, dosed 103 weeks, study length 104 weeks). Moreover, the TD50 by setting is: (rat, strain Fischer 344, males, in feed, site: thyroid gland, lesion: follicular-cell adenoma + follicular-cell carcinoma, dosed 103 weeks, study length 104 weeks) 24.3 mg/kg/day; (rat, strain Fischer 344, males, in feed, site: thyroid gland, lesion: follicular-cell carcinoma, dosed 103 weeks, study length 104 weeks) 33.6 mg/kg/day.

For the compound `Nc1ccc(NCCO)c([N+](=O)[O-])c1`, the TD50 is 292 mg/kg/day (mouse, strain B6C3F1, females, by gavage, site: any site (literature study), lesion: several types, types named in the paper, dosed 104 weeks, study length 105 weeks); 721 mg/kg/day (mouse, strain B6C3F1, females, by gavage, site: forestomach, lesion: squamous-cell papilloma, dosed 104 weeks, study length 105 weeks); 4670 mg/kg/day (mouse, strain B6C3F1, females, by gavage, site: lung, lesion: alveolar/bronchiolar adenoma + alveolar/bronchiolar carcinoma, dosed 104 weeks, study length 105 weeks); 427 mg/kg/day (mouse, strain B6C3F1, males, by gavage, site: liver, lesion: hepatocellular adenoma + hepatocellular carcinoma + neoplastic nodule, dosed 104 weeks, study length 105 weeks); 427 mg/kg/day (mouse, strain B6C3F1, males, by gavage, site: liver, lesion: hepatocellular adenoma + hepatocellular carcinoma, dosed 104 weeks, study length 105 weeks); 1750 mg/kg/day (mouse, strain B6C3F1, males, by gavage, site: lung, lesion: alveolar/bronchiolar adenoma + alveolar/bronchiolar carcinoma, dosed 104 weeks, study length 105 weeks). Further, the TD50 was 4870 mg/kg/day (inactive) (rat, strain Fischer 344, females, by gavage, site: any site (literature study), lesion: several types, types named in the paper, dosed 105 weeks, study length 106 weeks); 500 mg/kg/day (inactive) (rat, strain Fischer 344, males, by gavage, site: any site (literature study), lesion: several types, types named in the paper, dosed 105 weeks, study length 106 weeks); 1.51e+06 mg/kg/day (rat, strain Fischer 344, males, by gavage, site: liver, lesion: hepatocellular adenoma + hepatocellular carcinoma + neoplastic nodule, dosed 105 weeks, study length 106 weeks).

Regarding `CC[C@H]1CN2CCc3cc(OC)c(OC)cc3[C@@H]2C[C@@H]1C[C@H]1NCCc2cc(OC)c(OC)cc21`, the TD50 by setting is: (mouse, strain B6C3F1, females, i.p., site: any site (literature study), lesion: several types, types named in the paper, dosed 40 weeks, study length 78 weeks) 1.2 mg/kg/day; (mouse, strain B6C3F1, females, i.p., site: lung, lesion: alveolar/bronchiolar adenoma + alveolar/bronchiolar carcinoma, dosed 40 weeks, study length 78 weeks) 49.4 mg/kg/day; (mouse, strain B6C3F1, males, i.p., site: any site (literature study), lesion: several types, types named in the paper, dosed 44 weeks, study length 78 weeks) 0.552 mg/kg/day; (mouse, strain B6C3F1, males, i.p., site: liver, lesion: hepatocellular adenoma + hepatocellular carcinoma + neoplastic nodule, dosed 44 weeks, study length 78 weeks) 1.3 mg/kg/day; (mouse, strain B6C3F1, males, i.p., site: lung, lesion: alveolar/bronchiolar adenoma + alveolar/bronchiolar carcinoma, dosed 44 weeks, study length 78 weeks) 1.19 mg/kg/day; (rat, strain Sprague-Dawley, females, i.p., site: any site (literature study), lesion: several types, types named in the paper, dosed 52 weeks, study length 83 weeks) 0.235 mg/kg/day. The same compound displayed a TD50 (rat, strain Sprague-Dawley, males, i.p., site: any site (literature study), lesion: several types, types named in the paper, dosed 52 weeks, study length 83 weeks) of 0.382 mg/kg/day.

As for `CCN(CC)C(=S)S`, the TD50 by setting is: (mouse, strain B6AKF1, females, oral dosing, site: lung, lesion: adenoma, dosed 76 weeks, study length 76 weeks) 607 mg/kg/day; (mouse, strain B6AKF1, males, oral dosing, site: any site (literature study), lesion: several types, types named in the paper, dosed 76 weeks, study length 76 weeks) 403 mg/kg/day; (mouse, strain B6AKF1, males, oral dosing, site: lung, lesion: adenoma, dosed 76 weeks, study length 76 weeks) 155 mg/kg/day; (mouse, strain B6C3F1, females, in feed, site: liver, lesion: hepatocellular adenoma + hepatocellular carcinoma + neoplastic nodule, dosed 108 weeks, study length 108 weeks) 27000 mg/kg/day; (mouse, strain B6C3F1, females, in feed, site: lung, lesion: alveolar/bronchiolar adenoma + alveolar/bronchiolar carcinoma, dosed 108 weeks, study length 108 weeks) 4760 mg/kg/day; (mouse, strain B6C3F1, males, in feed, site: lung, lesion: alveolar/bronchiolar adenoma + alveolar/bronchiolar carcinoma, dosed 108 weeks, study length 108 weeks) 10300 mg/kg/day. The TD50 runs as follows: (mouse, strain B6C3F1, males, oral dosing, site: any site (literature study), lesion: several types, types named in the paper, dosed 76 weeks, study length 76 weeks) 71.4 mg/kg/day; (mouse, strain B6C3F1, males, oral dosing, site: liver, lesion: hepatoma, dosed 76 weeks, study length 76 weeks) 68.7 mg/kg/day; (mouse, strain B6C3F1, males, oral dosing, site: lung, lesion: adenoma, dosed 76 weeks, study length 76 weeks) 468 mg/kg/day. Moreover, the carcinogen call is “negative (inactive)” (mouse, strain B6C3F1, females, in feed, site: any site (literature study), lesion: several types, types named in the paper, dosed 108 weeks, study length 108 weeks); “negative (inactive)” (mouse, strain B6C3F1, males, in feed, site: any site (literature study), lesion: several types, types named in the paper, dosed 108 weeks, study length 108 weeks); “negative (inactive)” under setting [1]; “negative (inactive)” (rat, strain Fischer 344, males, in feed, site: any site (literature study), lesion: several types, types named in the paper, dosed 104 weeks, study length 104 weeks).

Regarding `Cc1cc(Cc2cc(C)cc(C(C)(C)C)c2O)c(O)c(C(C)(C)C)c1`, the carcinogen call runs as follows: (rat, strain Wistar, females, in feed, site: liver, lesion: one or several types, types not named, dosed 52 weeks, study length 52 weeks) “negative (inactive)”; (rat, strain Wistar, females, in feed, site: liver, lesion: one or several types, types not named, dosed 78 weeks, study length 78 weeks) “negative (inactive)”; (rat, strain Wistar, males, in feed, site: liver, lesion: hepatocellular adenoma, dosed 78 weeks, study length 78 weeks) “negative (inactive)”; (rat, strain Wistar, males, in feed, site: liver, lesion: one or several types, types not named, dosed 52 weeks, study length 52 weeks) “negative (inactive)”. The TD50 (rat, strain Wistar, males, in feed, site: testis, lesion: interstitial-cell tumor, dosed 52 weeks, study length 52 weeks) is 44.5 mg/kg/day (inactive) and the TD50 (rat, strain Wistar, males, in feed, site: testis, lesion: interstitial-cell tumor, dosed 78 weeks, study length 78 weeks) was 36.6 mg/kg/day (inactive).

Regarding `COc1cc(OC)c2c3c(c(=O)oc2c1)C(=O)CC3`, the carcinogen call (rat, strain Fischer, males, by gavage, site: liver, lesion: one or several types, types not named, dosed 52 weeks, study length 87 weeks) is “negative (inactive)”.

On to `C#CC1(O)CC[C@H]2[C@@H]3CCC4=CCCC[C@@H]4[C@H]3CC[C@@]21C` (stereo partly specified), for which, for the setting “dog, strain Beagle, females, in feed, site: mammary gland, lesion: carcinoma, dosed 364 weeks, study length 364 weeks”, the TD50 was 0.58 mg/kg/day.

The values are drawn from PubChem BioAssay AID1745844 (Carcinogenic Potency Database (CPDB), 2022).
